The source of these data is ChEMBL document CHEMBL4715829, “Heterodimeric Rifampicin-Tobramycin conjugates break intrinsic resistance of Pseudomonas aeruginosa to doxycycline and chloramphenicol in vitro and in a Galleria mellonella in vivo model” (Eur J Med Chem, 2019).

Data set [1] can be described thus: Cytotoxicity against human HepG2 cells assessed as cell viability at 12 uM incubated for 48 hrs by prestoblue assay. The format is cell-based. The conditions noted are these: read-out: Activity.
Data set [2] in a line: Cytotoxicity against human HEK293 cells assessed as cell viability at 12 uM incubated for 48 hrs by prestoblue assay. It is filed as cell-based. The conditions noted are these: read-out: Activity.
The nature of data set [3]: Toxicity in Galleria mellonella larvae assessed as larval […] at 100 mg/kg measured after 24 hrs. The format is organism-based. The conditions noted are these: in vivo.
The next data set concerns Pseudomonas aeruginosa. The data set is described as follows: Antibacterial activity against Pseudomonas aeruginosa 260-97103 infected in Galleria mellonella larvae assessed as survival of larvae up to 50 mg/kg measured after 24 hrs relative to control. The format is functional, organism-based. The following applies: dose mg/kg <=50, time 24.0 hrs.

`COc1cccc2c1C(=O)c1c(O)c3c(c(O)c1C2=O)C[C@@](O)(C(=O)CO)C[C@@H]3O[C@H]1C[C@H](N)[C@H](O)[C@H](C)O1` [DOXORUBICIN]: the viability at 48 h, 12 µM in data set [1] and in data set [2] was < 10% each time.
With `C[C@@H](O)[C@H]1C(=O)N2C(C(=O)O)=C(S[C@@H]3CN[C@H](C(=O)N(C)C)C3)[C@H](C)[C@H]12` [MEROPENEM], the mortality at 24 h in data set [3] worked out at 100%.
For the molecule COLISTIN, the Survival in the data set on Pseudomonas aeruginosa is > 50%.
